The target in assay [1] is T1, 3-phosphoinositide-dependent protein kinase 1 (Homo sapiens) (UniProt O15530).
T1 sequence (whole entry): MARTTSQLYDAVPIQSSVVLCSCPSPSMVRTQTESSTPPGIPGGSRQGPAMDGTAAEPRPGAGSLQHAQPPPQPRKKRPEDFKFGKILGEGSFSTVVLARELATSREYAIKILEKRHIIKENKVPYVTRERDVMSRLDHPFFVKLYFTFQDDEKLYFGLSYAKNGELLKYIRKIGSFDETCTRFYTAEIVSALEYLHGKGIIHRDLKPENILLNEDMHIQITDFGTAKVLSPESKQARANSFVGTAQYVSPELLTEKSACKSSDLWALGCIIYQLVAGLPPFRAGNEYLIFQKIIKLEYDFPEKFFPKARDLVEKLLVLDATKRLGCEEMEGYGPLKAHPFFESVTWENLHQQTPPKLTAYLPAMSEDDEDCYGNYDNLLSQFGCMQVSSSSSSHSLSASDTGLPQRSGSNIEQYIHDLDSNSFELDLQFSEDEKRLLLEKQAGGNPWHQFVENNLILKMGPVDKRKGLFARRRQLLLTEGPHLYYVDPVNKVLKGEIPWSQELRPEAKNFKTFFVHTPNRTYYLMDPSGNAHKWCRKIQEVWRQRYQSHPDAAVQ
Put plainly: Selectivity interaction (KinomeScan (DiscoverX)) EUB0000655a PDPK1. The conditions noted are these: at 10 µM.

In assay [2] the target is High affinity nerve growth factor receptor (Homo sapiens, UniProt P04629). Put plainly: Selectivity interaction (KinomeScan (DiscoverX)) EUB0000655a NTRK1. The conditions noted are these: at 10 µM.
The target in assay [3] is T2, Gamma-aminobutyric acid receptor subunit alpha-1 (Homo sapiens) (UniProt P14867).
T2 sequence (whole entry): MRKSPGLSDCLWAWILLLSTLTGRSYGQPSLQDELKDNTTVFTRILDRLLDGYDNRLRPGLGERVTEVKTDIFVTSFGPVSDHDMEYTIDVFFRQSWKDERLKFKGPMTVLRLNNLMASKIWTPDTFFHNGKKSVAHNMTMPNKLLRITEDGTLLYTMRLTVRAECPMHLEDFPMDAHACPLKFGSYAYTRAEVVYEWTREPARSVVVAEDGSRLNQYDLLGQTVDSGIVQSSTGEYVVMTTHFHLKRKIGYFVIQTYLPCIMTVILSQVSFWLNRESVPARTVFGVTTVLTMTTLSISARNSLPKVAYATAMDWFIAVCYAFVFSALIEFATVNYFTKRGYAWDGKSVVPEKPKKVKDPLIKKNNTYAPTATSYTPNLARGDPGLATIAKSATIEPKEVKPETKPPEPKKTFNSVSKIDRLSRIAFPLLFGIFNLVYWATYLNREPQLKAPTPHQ
Description: Selectivity interaction (Panel of non-epigenetic targets (kinases, GPCRs, ion channels, and transporters, Eurofins) ) EUB0000271b GABRA1. The conditions noted are these: at 1 µM.

The target of assay [4] is Wee1-like protein kinase 2 (Homo sapiens) (UniProt P0C1S8). Put plainly: Selectivity interaction (KinomeScan (DiscoverX)) EUB0000607a WEE2. The note with it: at 10 µM.
Assay [5] concerns the target T3, Tyrosine-protein kinase receptor TYRO3 (Homo sapiens) (UniProt Q06418).
T3 sequence (whole entry): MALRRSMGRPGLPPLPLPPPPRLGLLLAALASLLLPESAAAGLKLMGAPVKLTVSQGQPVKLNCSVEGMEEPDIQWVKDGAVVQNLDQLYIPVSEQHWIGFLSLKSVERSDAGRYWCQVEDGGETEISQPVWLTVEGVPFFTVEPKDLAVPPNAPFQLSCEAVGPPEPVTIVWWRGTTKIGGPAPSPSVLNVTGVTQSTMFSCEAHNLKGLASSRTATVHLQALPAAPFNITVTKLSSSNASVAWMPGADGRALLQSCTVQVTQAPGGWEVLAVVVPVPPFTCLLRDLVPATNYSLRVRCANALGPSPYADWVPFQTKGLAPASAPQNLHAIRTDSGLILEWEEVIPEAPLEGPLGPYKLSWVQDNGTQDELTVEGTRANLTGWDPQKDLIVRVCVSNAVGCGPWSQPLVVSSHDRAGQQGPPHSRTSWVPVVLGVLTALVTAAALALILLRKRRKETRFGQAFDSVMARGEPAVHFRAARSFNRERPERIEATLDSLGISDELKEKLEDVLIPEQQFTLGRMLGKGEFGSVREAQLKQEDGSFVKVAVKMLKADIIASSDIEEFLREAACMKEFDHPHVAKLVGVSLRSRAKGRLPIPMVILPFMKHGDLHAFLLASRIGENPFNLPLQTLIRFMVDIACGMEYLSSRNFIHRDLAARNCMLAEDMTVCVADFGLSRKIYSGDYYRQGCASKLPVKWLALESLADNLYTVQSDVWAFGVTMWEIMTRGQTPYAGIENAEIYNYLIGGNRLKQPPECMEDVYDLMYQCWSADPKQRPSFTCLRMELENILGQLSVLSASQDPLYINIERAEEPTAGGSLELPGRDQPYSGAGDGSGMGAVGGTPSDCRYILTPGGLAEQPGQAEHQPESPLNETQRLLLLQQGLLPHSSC
Put plainly: Selectivity interaction (KinomeScan (DiscoverX)) EUB0000607a TYRO3. The note with it: at 10 µM.

For assay [6], the target named is Casein kinase I isoform epsilon (Homo sapiens, UniProt P49674). Put plainly: Selectivity interaction (Kinase panel (Invitrogen)) EUB0000639a CSNK1E. The note with it: at 200 nM.
In assay [7] the target is T4, Serine/threonine-protein kinase Sgk3 (Homo sapiens) (UniProt Q96BR1).
T4 sequence (whole entry): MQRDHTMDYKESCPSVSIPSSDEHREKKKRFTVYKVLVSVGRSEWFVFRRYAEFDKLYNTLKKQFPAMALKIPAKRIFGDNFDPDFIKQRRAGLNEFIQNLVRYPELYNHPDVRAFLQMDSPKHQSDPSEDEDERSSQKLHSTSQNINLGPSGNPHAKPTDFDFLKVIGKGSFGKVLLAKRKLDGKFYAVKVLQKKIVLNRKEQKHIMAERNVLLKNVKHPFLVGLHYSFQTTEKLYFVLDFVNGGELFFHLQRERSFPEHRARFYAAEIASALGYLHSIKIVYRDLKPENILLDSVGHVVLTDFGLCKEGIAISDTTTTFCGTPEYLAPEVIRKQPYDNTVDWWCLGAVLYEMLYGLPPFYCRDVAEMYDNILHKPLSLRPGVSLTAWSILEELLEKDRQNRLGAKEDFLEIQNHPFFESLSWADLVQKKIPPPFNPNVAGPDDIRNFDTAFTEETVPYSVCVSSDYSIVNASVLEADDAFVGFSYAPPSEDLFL
Put plainly: Selectivity interaction (ActivX KiNativ screen (kinase selectivity in THP-1 cell lysates)) EUB0000639a SGK3. The format is subcellular. The note with it: lysate.

The target in assay [8] is Calcium/calmodulin-dependent protein kinase type 1D (Homo sapiens) (UniProt Q8IU85). Description: Selectivity interaction (ActivX KiNativ screen (kinase selectivity in THP-1 cell lysates)) EUB0000639a CAMK1D. The format is subcellular. The conditions noted are these: lysate, at 5 µM.
Assay [9] concerns the target Ribosomal protein S6 kinase alpha-5 (Homo sapiens) (UniProt O75582). Put plainly: Selectivity interaction (KinomeScan (DiscoverX)) EUB0000618a RPS6KA5. The note with it: at 10 µM.

Chain of Wee1-like protein kinase 2 (Homo sapiens) (P0C1S8 whole entry, looked up): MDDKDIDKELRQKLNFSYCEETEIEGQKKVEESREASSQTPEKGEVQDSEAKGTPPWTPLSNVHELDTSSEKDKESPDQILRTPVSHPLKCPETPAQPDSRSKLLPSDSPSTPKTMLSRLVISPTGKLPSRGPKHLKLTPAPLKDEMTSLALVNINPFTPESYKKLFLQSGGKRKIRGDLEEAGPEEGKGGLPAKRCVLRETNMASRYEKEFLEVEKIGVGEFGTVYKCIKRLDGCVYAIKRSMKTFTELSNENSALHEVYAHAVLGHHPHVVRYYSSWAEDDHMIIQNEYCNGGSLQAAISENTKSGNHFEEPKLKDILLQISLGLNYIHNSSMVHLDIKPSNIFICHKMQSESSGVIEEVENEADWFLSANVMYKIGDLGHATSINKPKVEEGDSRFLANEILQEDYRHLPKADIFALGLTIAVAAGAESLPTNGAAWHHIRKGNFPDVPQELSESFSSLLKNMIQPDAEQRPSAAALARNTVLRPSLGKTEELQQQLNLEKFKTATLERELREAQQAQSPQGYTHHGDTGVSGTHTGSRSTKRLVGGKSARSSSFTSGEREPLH
Chain of Calcium/calmodulin-dependent protein kinase type 1D (Homo sapiens) (Q8IU85 whole entry, looked up): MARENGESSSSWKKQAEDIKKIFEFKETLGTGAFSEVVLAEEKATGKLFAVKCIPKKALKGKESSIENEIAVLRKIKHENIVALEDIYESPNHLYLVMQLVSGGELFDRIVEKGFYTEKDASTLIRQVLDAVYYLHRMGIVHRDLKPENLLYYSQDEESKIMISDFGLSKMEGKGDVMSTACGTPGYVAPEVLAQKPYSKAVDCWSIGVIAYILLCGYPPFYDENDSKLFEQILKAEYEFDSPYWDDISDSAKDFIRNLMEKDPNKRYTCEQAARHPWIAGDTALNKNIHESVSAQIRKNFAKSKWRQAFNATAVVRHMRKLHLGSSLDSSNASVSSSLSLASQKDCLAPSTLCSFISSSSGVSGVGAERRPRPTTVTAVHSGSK
Chain of High affinity nerve growth factor receptor (P04629 33-796 limits assumed): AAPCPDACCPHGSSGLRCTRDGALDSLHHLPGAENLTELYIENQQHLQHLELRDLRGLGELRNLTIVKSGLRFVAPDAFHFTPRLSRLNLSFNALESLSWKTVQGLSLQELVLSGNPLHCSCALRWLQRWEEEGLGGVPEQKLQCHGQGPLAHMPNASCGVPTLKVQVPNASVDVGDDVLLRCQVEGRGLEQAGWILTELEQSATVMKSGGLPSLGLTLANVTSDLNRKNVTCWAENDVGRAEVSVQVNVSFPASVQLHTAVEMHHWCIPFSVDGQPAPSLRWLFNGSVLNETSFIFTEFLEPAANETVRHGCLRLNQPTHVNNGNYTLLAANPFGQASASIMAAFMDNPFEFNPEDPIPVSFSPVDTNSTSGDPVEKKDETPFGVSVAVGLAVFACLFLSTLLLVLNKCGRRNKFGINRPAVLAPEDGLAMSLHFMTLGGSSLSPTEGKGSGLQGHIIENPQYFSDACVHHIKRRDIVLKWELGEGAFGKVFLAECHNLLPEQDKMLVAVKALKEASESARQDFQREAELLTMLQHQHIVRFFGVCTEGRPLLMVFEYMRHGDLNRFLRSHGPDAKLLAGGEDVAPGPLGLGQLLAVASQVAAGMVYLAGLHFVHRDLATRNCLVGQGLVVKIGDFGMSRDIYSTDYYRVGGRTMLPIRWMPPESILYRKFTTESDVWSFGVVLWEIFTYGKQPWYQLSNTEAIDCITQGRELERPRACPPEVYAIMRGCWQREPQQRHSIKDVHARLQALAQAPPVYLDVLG
Chain of Casein kinase I isoform epsilon (P49674 whole entry, looked up, canonical isoform): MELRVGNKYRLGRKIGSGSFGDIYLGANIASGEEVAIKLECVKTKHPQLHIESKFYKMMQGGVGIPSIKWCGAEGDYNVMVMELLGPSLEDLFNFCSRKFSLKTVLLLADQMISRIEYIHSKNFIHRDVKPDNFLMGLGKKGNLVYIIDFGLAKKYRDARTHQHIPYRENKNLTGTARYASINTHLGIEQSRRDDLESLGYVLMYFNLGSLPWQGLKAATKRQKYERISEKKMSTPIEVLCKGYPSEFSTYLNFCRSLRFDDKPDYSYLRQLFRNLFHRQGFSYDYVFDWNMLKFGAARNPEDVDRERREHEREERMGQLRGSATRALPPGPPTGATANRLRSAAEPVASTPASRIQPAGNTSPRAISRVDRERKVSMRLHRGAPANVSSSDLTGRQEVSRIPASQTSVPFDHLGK
Chain of Ribosomal protein S6 kinase alpha-5 (Homo sapiens) (O75582 whole entry, looked up): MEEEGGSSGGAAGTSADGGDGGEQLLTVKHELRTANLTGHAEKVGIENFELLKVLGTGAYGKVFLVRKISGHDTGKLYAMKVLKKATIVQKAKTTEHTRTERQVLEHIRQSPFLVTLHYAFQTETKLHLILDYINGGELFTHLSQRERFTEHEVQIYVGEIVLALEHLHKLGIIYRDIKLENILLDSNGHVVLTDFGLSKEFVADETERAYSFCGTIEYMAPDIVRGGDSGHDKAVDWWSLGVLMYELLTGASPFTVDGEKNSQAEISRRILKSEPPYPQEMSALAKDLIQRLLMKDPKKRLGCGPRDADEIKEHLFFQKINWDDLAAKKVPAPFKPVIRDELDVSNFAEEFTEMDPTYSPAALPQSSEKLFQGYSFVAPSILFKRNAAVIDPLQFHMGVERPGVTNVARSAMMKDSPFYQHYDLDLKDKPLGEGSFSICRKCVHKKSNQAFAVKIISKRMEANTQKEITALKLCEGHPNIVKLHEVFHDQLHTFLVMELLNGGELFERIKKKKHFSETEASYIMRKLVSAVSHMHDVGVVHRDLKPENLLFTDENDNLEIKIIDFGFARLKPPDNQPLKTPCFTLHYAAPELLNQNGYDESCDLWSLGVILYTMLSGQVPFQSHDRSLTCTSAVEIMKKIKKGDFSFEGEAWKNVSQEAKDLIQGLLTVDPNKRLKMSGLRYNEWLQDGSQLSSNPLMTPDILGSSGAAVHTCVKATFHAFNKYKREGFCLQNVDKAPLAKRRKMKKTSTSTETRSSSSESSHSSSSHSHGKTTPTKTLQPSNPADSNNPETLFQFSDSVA

As for `CN(C)CCOc1ccc(-c2nc(-c3ccncc3)c(-c3ccc4c(c3)CC/C4=N\O)[nH]2)cc1`, the % of control in [1] worked out at 88%; in assay [2], 90%.

Consider `Cc1cc(C)cc([C@@H]2c3cc(C)ccc3NC(=O)CN2C(=O)c2ccc(Br)s2)c1`, for which the % of inhibition in assay [3] is -9%.

On to `CNC(=O)Nc1ccc(-c2nc(N3CC4CCC(C3)O4)c3cnn(C4CCC5(CC4)OCCO5)c3n2)cc1`, for which the % of control in assay [4] and in assay [5] was 100% each time.

As to `CC[C@@H]1[C@H](F)C(=O)N[C@@H]1COc1nccc2cc(C(N)=O)c(OC)cc12` [ZIMLOVISERTIB], the % of inhibition came out at 42.3% in [6]; 51.3% in [7] (at 0.01 µM); 6.7% in assay [7] (at 0.04 µM); 7.4% in assay [7] (at 0.2 µM); 18.9% in [7] (at 1 µM); 25.3% in assay [7] (at 5 µM). The % of inhibition in assay [8] turned out to be 21.3%.

In turn, `O[C@H]1CC[C@H](Nc2ncc3nc(Nc4c(F)cc(F)cc4F)n([C@H]4CCOC4)c3n2)CC1` yielded a % of control in assay [9] of 68%.

(Values after ChEMBL document CHEMBL5465560, “Selectivity Literature for EUbOPEN Chemogenomic Library” (2024).)
